Measurements: PMC11061149, “Protein mimetic 2D FAST rescues alpha synuclein aggregation mediated early and post disease Parkinson’s phenotypes” (Nature Communications, 2024)
“And” between values parts separate entries of the source, which are not always exact repeats. Equal values may be shown once.

What was measured:
UA196 worms = test: Confocal counting of healthy DA neurons, post-disease onset PD model of UA196 worms (treatment on day five); type: in vivo, C. elegans; details: for number of intact healthy DA neurons (max. 60): day 15 (untreated 13.8 / 12.8); for healthy DA neurons per trial: UA196 worms+Ligands, single trials 1-6, day not given; for Healthy DA neurons, UA196 worms+Ligands: individual trials 1-6
Description: The UA196 worms were bleached, and the eggs were incubated on PLATE 1. On day two, the UA196 worms were transferred (using M9 buffer) on PLATE 2 (without ligand). On day five, 10 UA196 worms were used to determine the number of healthy DA worms using confocal imaging (as described earlier) prior to the treatment with ligands on day five. In tandem, ~50 worms were transferred to PLATE 3 (with ligand) using M9 buffer (10-20 µL) and the plate was incubated at 20 °C in the incubator. On days 10 and 15, 10 UA196 worms from PLATE 2 (without ligand) and PLATE 3 (with ligand) were used to determine the number of healthy DA worms using confocal imaging (as described earlier). For each condition, six biological replicates were performed and at least 10 technical replicates were used for each biological replicate. […] (n = 6 independent experiments and each n consisted of a minimum of ten technical replicates).

[1] = test system: UA196 worms (human αS and GFP in DA neurons); test: Confocal counting of healthy DA neurons in UA196 worms, early treatment (day two and four); type: in vivo, C. elegans; details: for number of intact DA neurons in UA196 worms (max. 60): 50 µM ligand on day two and four, day 15 (untreated 13.5); for Number of healthy DA neurons per trial (sheet 7L): UA196 worms + ligand, Day 15, single trials; for Total neurons, UA196 worms+Ligands: one value per trial, day not given for ligand (controls: Day 3, Day 15)
Source text: The aggregation of αS is associated with the neurodegeneration of DA neurons, which is a pathological hallmark of PD. Next, we investigated the neuroprotective effect of NS163 on the intraneuronal αS aggregation-mediated degeneration of DA neurons in a well-established C. elegans PD model (UA196)[20],[72]–[75]. The UA196 worms express both human αS and GFP in DA neurons under the control of the dopamine promoter genotype (Pdat-1::GFP; Pdat-1::α-SYN). The expression and aggregation of αS in six DA neurons that are located within the anterior region of worms lead to progressive neurodegeneration characteristics during the aging of UA196 worms. This strain has been used to gain insights into the PD-associated mechanisms and to assess the neuroprotective effect of ligands against the intraneuronal αS aggregation[20],[72]–[75]. During the aging of worms, αS protein aggregates and degenerates the DA neurons as represented by the gradual loss of cell bodies as observed from day 3 (Fig. 7b, c, filled red arrow) to day 5 (Fig. 7d, e, empty red arrow), to day 15 (Fig. 7f, g, empty red arrow). Additionally, there was fragmentation and blebbing of neurites from day 3 (Fig. 7b, c, filled yellow arrow) to day 5 (Fig. 7d, e, empty yellow arrow), which has been observed by others as well[72]–[75]. The maximum number of healthy DA neurons in one UA196 worm is six on day 3 (no degeneration) and we used 10 worms/biological replicate, which makes a total of 60 healthy DA neurons/biological replicate. Therefore, for each study, the maximum number of healthy DA neurons in UA196 worms is 60 as an average for each biological replicate. […] None of the UA196 worms had all six healthy DA neurons on day 5 (Fig. 7k, -NS163) and there was a gradual decline in the total number of healthy DA neurons in UA196 worms (Supplementary Fig. 26a). […] The average number of intact DA neurons in UA196 worms treated with NS163 was 59.5, 58.7, and 57.3 on day five, 10, and 15, respectively (Fig. 7j, red line). Additionally, the total number of treated worms with all six intact DA neurons were 57, 52, and 47 on day 5, 10, and 15, respectively (Fig. 7k, Supplementary Fig. 26b).
In UA196 strain, human αS and GFP are expressed in DA neurons under control of a dopamine transporter-specific promoter [Pdat-1::α-syn+Pdat-1::GFP], which results in age-dependent neurodegeneration of six DA neurons.
This experiment was performed based on previously described protocols with slight modifications[24],[65],[88]. Briefly, the worm strains (NL5901 or UA196) were bleached at the same time and the eggs were incubated on PLATE 1. On day two, the worms were divided into two batches. One half of the worms were transferred (using M9 buffer) on PLATE 2 (without ligand) and the second half of the worms were transferred to PLATE 3 (with ligand). The concentration of the ligands varied from 10–50 µM as described in the main manuscript. The worms were incubated on PLATE 2 or PLATE 3 up to day 3 at 20 °C in an incubator with constant humidity. On day four, the ligand (10–50 µM, stock conc. = 10 mM in DMSO, DMSO from 0.1–0.5%, v/v) was added again to PLATE 3. For confocal imaging, at least 10 worms per condition (from PLATE 2 or PLATE 3) were transferred to a cover slide containing an anesthetic (40 mM sodium azide), and mounted on glass microscope slide containing 2% agarose pads using a reported protocol. The images of the worms were collected using an Olympus Fluoview FV3000 confocal/2-photon microscope (40 x Plan-Apo/1.3 NA objective with DIC capability) and processed using the OlympusViewer in ImageJ software. For NL5901 worms, the inclusions of the aggregated αS (GFP puncta in the muscle cells) were manually counted (10 worms per condition) for the five-day imaging period (day 5 to day 9) for PLATE 2 or PLATE 3. […]

[2] = molecular target: T1, α-Synuclein (αS) aggregation (Homo sapiens, UniProt P37840); test: Thioflavin T (ThT) dye-based αS aggregation assay (de novo); type: biochemical; details: for ThT intensity of Synuclein with ligand, Average / ThT intensity of Synuclein with ligand, Trial 1-3: sheet S17; for ThT intensity of Synuclein with ligand, Average: average of 3 trials, Synuclein alone 206, ThT control 37; for ThT intensity of Synuclein with ligand, Trial 1-3: individual trials, Synuclein alone average 206, ThT control average 37
T1 construct: made in house; host or cells: E. coli BL21(DE3)
Description: We used a 2D FAST approach in OPs to identify potent antagonists of the aggregation of αS. In this approach, we start with a library of monopyridyls with different functional groups. The library of monopyridyls was synthesized using 2-chloro-6-methyl-3-nitropyridine as a common precursor, which was treated with primary alcohols with diverse side chain functionalities via a one-pot reaction (Fig. 1B, a and see Supplementary information for synthetic details). […] We selected the side chains containing hydrophobic, polar, positively charged, and negatively charged functional groups, which mimic the side chains of the amino acids (Fig. 1C). […] The monopyridyl library was screened against the aggregation of 100 μM αS at an equimolar ratio using Thioflavin T (ThT) dye-based aggregation assay (Fig. 1B, b). […] The chloro-dipyridyl was reacted with a library of primary amines/thiols to synthesize a library of dipyridyls (Fig. 1B, e) using a one-pot reaction. […] However, a few dipyridyls required column chromatography to separate them from the starting material side chains because of their very high boiling point (7 out of 21 dipyridyls required column, Supplementary Fig. 1). […]
Aggregation Kinetics were measured according to a previously described protocol. […] The solutions were placed in a ThermoMixer (Eppendorf, Hamberg, Germany) at 37 °C with constant shaking at 1300 rpm (rpm). At different time points, 5 μL aliquots of each αS solution were added to 95 μL PBS containing 50 μM Thioflavin T (ThT) dye in a Costar black 96 well plate (Corning Inc., Kennebunk, ME). ThT fluorescence intensity was measured (λex = 450 nm and λem = 490 nm) on an Infinite M200PRO plate reader (Tecan, Männedorf, Switzerland), and plotted against time to give a sigmoidal curve typical of amyloid aggregation. For the single point ThT aggregation, 100 μM αS, in the absence and presence of ligands, was aggregated under the described conditions and the ThT fluorescence was reported at 96 h. The reported ThT intensity values are the average of each experiment conducted in triplicate, with the error bars representing the standard deviations or standard error of the mean (s.e.m.) as described in the main manuscript.

[3] = 100 µM αS + equimolar ligand, comparison with reported ligands Fig. 5f, time 0 hr

Row | SMILES | number of intact healthy DA neurons (max. 60) (UA196 worms; 50 μM ligand on day five) | healthy DA neurons per trial (UA196 worms) | Healthy DA neurons, UA196 worms+Ligands (UA196 worms) | number of intact DA neurons in UA196 worms (max. 60) [1] | Number of healthy DA neurons per trial (sheet 7L) [1] | Total neurons, UA196 worms+Ligands [1] | ThT fluorescence intensity, Average [2, 3] | ThT fluorescence intensity, Average ([2]; Fig. 5f profile, time 6 hr) | ThT fluorescence intensity, Average ([2]; Fig. 5f profile, time 12 hr) | ThT fluorescence intensity, Average ([2]; Fig. 5f profile, time 24 hr) | ThT fluorescence intensity, Average ([2]; Fig. 5f profile, time 36 hr) | ThT fluorescence intensity, Average ([2]; Fig. 5f profile, time 48 hr) | ThT fluorescence intensity, Average ([2]; Fig. 5f profile, time 72 hr) | ThT fluorescence intensity, Average ([2]; Fig. 5f profile, time 96 hr) | ThT intensity of Synuclein with ligand, Average [2] | ThT intensity of Synuclein with ligand, Trial 1-3 [2] | rescue of the degeneration of DA neurons in the post-disease onset PD model, in words (UA196 worms; 50 μM ligand on day five, day 15) | rescue of the degeneration of DA neurons in UA196 worms, in words ([1]; 50 μM ligand) | decrease of the overall ThT intensity ([2]; 100 µM αS, equimolar, after 96 h)
1 | CCCC(CCC)C(=O)O [Valporic acid] | 13.5 | 9 and 17 and 15 and 11 and 16 and 13 | 9 and 17 and 15 and 11 and 16 and 13 | 18.7 | 21 and 16 and 22 and 17 and 20 | 21 and 16 and 22 and 17 and 20 | 62.3333 | 44 | 66.6667 | 135.333 | 121.333 | 133.333 | 167.333 | 165.667 | 165.667 | 177.5 and 155 and 164.5 | – | – | –
2 | O=C(O[C@@H]1Cc2c(O)cc(O)cc2O[C@@H]1c1cc(O)c(O)c(O)c1)c1cc(O)c(O)c(O)c1 [EGCG] | 20.5 | 24 and 17 and 26 and 18 and 21 | 24 and 17 and 26 and 18 and 21 | 30.5 | 26 and 33 and 32 and 27 and 31 and 34 | 26 and 33 and 32 and 27 and 31 and 34 | 56 | 50.6667 | 62.3333 | 61.3333 | 75.6667 | 84 | 151.667 | 150.333 | 150.333 | 126 and 174 and 151 | moderate in rescuing | moderate in rescuing | ~ 25%
3 | C=C(c1ccc(C(=O)O)cc1)c1cc2c(cc1C)C(C)(C)CCC2(C)C [Bexarotene] | 13.2 | 11 and 17 and 13 and 10 | 11 and 17 and 13 and 10 | 19.3 | 19 and 22 and 20 and 16 and 21 and 18 | 19 and 22 and 20 and 16 and 21 and 18 | 55.6667 | 61.3333 | 52.3333 | 42 | 69.6667 | 159.667 | 195 | 186 | 186.333 | 176 and 194 and 189 | – | – | –
4 | OCCc1ccc(O)cc1 [Tyrosol] | 14.3 | 12 and 19 and 17 and 11 and 15 | 12 and 19 and 17 and 11 and 15 | 21.7 | 22 and 23 and 17 and 21 and 24 | 22 and 23 and 17 and 21 and 24 | 49.6667 | 48.3333 | 49.6667 | 78.6667 | 140.667 | 137 | 175.333 | 229.667 | 229.667 | 238.6 and 233 and 217.4 | – | – | –
